From paper PMC12723328, “Designing Programmable Peptide Nucleic Acid‐based Nanovaccines for Anticancer Immune Activation” (Small (Weinheim an Der Bergstrasse, Germany), 2025) come the findings set out here.

In series [1] the test system is co‐culture of RF33.70 cells and the activated BMDCs. The series can be described thus: IL-2 secretion from co-culture of pretreated BMDCs and RF33.70 cells (ELISA). Type of series: cell-based, mouse. The note with it: BMDCs pretreated 16 h at 1 µM, co-culture with RF33.70 16 h, n = 3. Here is the method: The differentiation of BMDC from bone marrow cells was performed as previously described.^[ [48] ^] 2 × 10^4 cells/well BMDCs were suspended in 200 µL medium without adding IL‐2 and IL‐4. BMDCs were treated with LPn[OVA8/CpG/LLP2A] containing 1 or 2 µM of OVA8 for 16 h. Each group contains approximately equivalent concentrations of CpG and OVA8 based on the data in Table S1 (Supporting Information). After that, the cells were centrifuged at 320 g for 5 min to remove the uninternalized drugs. Then the BMDC cells were resuspended in RPMI medium and were co‐incubated with 10 × 10^4 cells/well of RF33.70 cells for another 16 h. After that, the medium supernatant was collected. The IL‐2 concentration was measured by IL‐2 Mouse ELISA Kit (Thermo Fisher).
For the blocking experiment, BMDC cells were pre‐incubated with an excess of LLP2A‐P4 (100 µM) for 1 h. Then the cells were washed three times with PBS, before the treatment of 1 µM LP11[OVA8/CpG/LLP2A] for 16 h. After that, the cells were washed three times with PBS to get rid of the uninternalized drugs, followed by co‐culturing with RF33.70 cells. The IL‐2 level was quantified by ELISA as mentioned above.
(An ELISA detects its analyte on a solid surface through an enzyme-linked reagent.)

Series [2] is described as follows: Zeta potential in H2O (Malvern DLS zetasizer). The class given is physicochemical. Particulars: OVA8 or CpG 5 µM, mean ± SD, n = 3. From the text:
(§1) The size and zeta potential of LPn[OVA8/CpG/LLP2A] in H2O were detected by Malvern DLS zetasizer with the equivalent concentration of OVA8 or CpG at 5 µΜ. The morphology of LPn[OVA8/CpG/LLP2A] was visualized by transmission electron microscope (TEM, 80 kV FEI Talos 120C).

Series [3] is described as follows: Hydrodynamic size by DLS (Malvern zetasizer) in water. Type of series: physicochemical. Particulars: in H2O, OVA8 or CpG 5 µM, mean ± SD, n = 3. Here is the method: The size and the dispersity of each of the three nanoconstructs in water were determined by Malvern zetasizer. […] (195.1 nm ± 61.1). […] To better understand how PVN nanoparticles are formed, we used LP11[OVA8/CpG/LLP2A] as an example and analyzed the hydrodynamic size, morphology, and spatial distribution of its components in various LP11‐based incomplete PVNs. It is well‐known that Class A CpG ODNs can self‐assemble into nanosized multimers because of their palindromic and poly‐guanine (G) tails.^[ [19], [21], [22] ^] […] To determine whether G‐quadruplex structures formed in the CpG ODN nanoclusters, we used nuclear magnetic resonance (NMR) to detect the CpG structure. […] Furthermore, hybridization with CpG, P3‐OVA8, and LLP2A‐P4 payloads increased the size of the final nanoparticle to 132.6 ± 71.7 nm.
as §1

Turning to “CpG: Class A CpG oligonucleotide, toll‐like receptor 9 agonist; 5′ ggGGTCAACGTTGAgggggg 3′, lowercase phosphorothioate (DNA GGGGTCAACGTTGAGGGGGG; DNA, linkages s2 o12 s5 (s phosphorothioate, o phosphodiester), methylation of C not given here; further chemistry not fully specified)”, the “IL‐2 production” value in series [1] is listed as “barely induced”. In series [2], the zeta potential is given as −24.3 ± 13.3 mV. In series [3], this substance yielded an average hydrodynamic size of 62.3 ± 14.2 nm.

For CCCCGTATGCA [LP11], the “IL‐2 production” value in series [1] was “barely induced”. Also, the zeta potential in series [2] is roughly 0 mV.

The substance TAC‐K‐SIINFEKL [P3‐OVA8] had a zeta potential in series [2] of roughly 0 mV.
